Laboratory results taken from US20250145599A1, “CERTAIN CHEMICAL ENTITIES, COMPOSITIONS, AND METHODS” (Retune Pharma Inc., priority 2022, published 2025).
pIC50: −log10 of the molar value.

What was measured:
IGF-1R [1] = molecular target: T1, IGF-1R (Homo sapiens, UniProt P08069); assay: IGF-1R biochemical assay (ADP-Glo); conditions: read-out: IGF1R IC50
Description: The inhibitory activity against IGF-1R was measured using ADP-Glo assay. The percent (%) inhibition at each concentration of compound is calculated based on and relative to the luminescence signal in the Max and Min control wells contained within each assay plate. The Max control wells contain enzyme and substrate as 0% inhibition, and the Min control wells only contain substrate without enzyme as 100% inhibition. The concentrations and % inhibition values for tested compounds are plotted and the concentration of compound required for 50% inhibition (IC50) is determined with a four-parameter logistic dose response equation.
Table 3 provides IC50 data of representative compounds against IGF-1R using ADP-Glo assay. The IC50 data are designated within the following ranges: A: ≤0.10 μM, B: >0.10 μM to ≤1 μM, C: >1 μM to ≤20 μM

Ba/F3-TEL-IGF-1R cells = assay: CellTiter-Glo luminescent cell viability assay; assay type: cell-based; conditions: cellular IC50, Ba/F3-TEL-IGF-1R cells
Description: The CellTiter-Glo luminescent cell viability assay was used to determine the inhibitory activity of the compounds against IGF-1R in Ba/F3-TEL-IGF-1R cells. […] The IC50 data are designated within the following ranges: A: ≤1 μM, B: >1 μM to ≤10 μM, C: >10 μM to ≤20 μM

IGF-1R [2] = molecular target: T1, IGF-1R; conditions: cited from earlier work
tumor cell lines = conditions: variety of tumor cell lines; cited from earlier work
adrenocortical carcinoma = conditions: Phase 3 study; cited from earlier work
[3] = test system: IGF-1R-driven xenograft model; conditions: orally once daily; cited from earlier work
[4] = test system: metastatic pancreatic cancer; conditions: clinical trials, incl. metastatic pancreatic cancer; cited from earlier work
thyroid eye disease = conditions: cited from earlier work
malignancies = conditions: Phase I trials; cited from earlier work

T1 sequence (P08069 31-1367): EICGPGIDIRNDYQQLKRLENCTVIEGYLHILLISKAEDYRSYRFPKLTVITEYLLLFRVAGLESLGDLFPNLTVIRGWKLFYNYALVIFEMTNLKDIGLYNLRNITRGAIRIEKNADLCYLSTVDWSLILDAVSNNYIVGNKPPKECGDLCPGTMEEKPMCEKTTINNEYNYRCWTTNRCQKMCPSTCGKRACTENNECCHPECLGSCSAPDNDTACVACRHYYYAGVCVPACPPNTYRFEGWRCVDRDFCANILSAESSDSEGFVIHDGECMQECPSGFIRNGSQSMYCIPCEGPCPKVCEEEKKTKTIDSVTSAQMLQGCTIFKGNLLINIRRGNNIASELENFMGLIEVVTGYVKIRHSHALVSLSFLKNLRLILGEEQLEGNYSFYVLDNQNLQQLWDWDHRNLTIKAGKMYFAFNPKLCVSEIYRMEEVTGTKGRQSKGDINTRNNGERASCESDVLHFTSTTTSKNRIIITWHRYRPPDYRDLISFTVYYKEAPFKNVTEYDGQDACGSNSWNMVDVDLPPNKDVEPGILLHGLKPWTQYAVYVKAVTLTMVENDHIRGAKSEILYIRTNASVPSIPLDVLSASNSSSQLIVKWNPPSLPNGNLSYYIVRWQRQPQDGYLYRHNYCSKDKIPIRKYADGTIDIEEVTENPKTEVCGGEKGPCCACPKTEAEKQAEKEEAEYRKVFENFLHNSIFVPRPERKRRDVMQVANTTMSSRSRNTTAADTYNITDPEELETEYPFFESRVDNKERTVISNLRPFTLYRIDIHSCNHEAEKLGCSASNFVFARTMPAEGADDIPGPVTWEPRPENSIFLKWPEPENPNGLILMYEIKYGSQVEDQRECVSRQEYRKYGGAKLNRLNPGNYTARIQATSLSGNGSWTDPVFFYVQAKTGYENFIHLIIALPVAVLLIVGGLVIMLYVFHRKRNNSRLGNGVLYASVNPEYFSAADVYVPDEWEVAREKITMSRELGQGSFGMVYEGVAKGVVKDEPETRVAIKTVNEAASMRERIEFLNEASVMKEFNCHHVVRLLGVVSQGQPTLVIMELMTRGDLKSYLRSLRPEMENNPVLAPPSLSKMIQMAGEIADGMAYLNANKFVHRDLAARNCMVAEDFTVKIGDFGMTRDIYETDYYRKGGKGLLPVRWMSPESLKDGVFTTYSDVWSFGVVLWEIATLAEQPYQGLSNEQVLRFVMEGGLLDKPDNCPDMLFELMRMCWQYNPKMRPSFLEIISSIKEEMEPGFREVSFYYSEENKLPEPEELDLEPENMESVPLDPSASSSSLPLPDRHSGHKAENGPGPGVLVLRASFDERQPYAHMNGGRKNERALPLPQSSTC

Compound: COc1c(F)c(-c2ccccc2F)nc2cc(-c3nn([C@H]4C[C@@](C)(O)C4)c(N)c3C(N)=O)ccc12 [Example C063, 5-amino-3-(3-fluoro-2-(2-fluorophenyl)-4-methoxyquinolin-7-yl)-1-((1s,3s)-3-hydroxy-3-methylcyclobutyl)-1H-pyrazole-4-carboxamide]
- pIC50 (IGF-1R [1]): ≥ 7.00
- pIC50 (Ba/F3-TEL-IGF-1R cells): ≥ 6.00

Compound: C[C@]1(O)C[C@@H](c2nc(-c3ccc4ccc(-c5ccccc5)nc4c3)c3c(N)nccn32)C1 [OSI-906, Linsitinib]
- inhibition of autophosphorylation of human IGF-1R (IGF-1R [2]): potently and selectively inhibits autophosphorylation
- in vitro antiproliferative effects (tumor cell lines): in vitro antiproliferative effects
- overall survival (adrenocortical carcinoma): did not increase overall survival
- in vivo anti-tumor efficacy [3]: robust in vivo anti-tumor efficacy

Compound: ganitumab
- survival rates [4]: largely ineffective at improving survival rates

Compound: teprotumumab
- inflammation in thyroid eye disease (thyroid eye disease): decrease inflammation
- effectiveness in treating malignancies (malignancies): little effectiveness
